Assay results as given in article PMC10052609, “Cholinesterase Inhibitors from an Endophytic Fungus Aspergillus niveus Fv-er401: Metabolomics, Isolation and Molecular Docking” (Molecules, 2023).
“And” between values parts separate entries of the source, which are not always exact repeats. Equal entries are not always repeated. Where two headings read alike, the source gives them in different places.

Columns and labels:
AChE = AChE (Homo sapiens, UniProt P22303); experiment: Acetylcholinesterase inhibitory activity (Ellman's method); type: biochemical; conditions: acetylthiocholine substrate, 25 °C, read at 405 nm
Chain of AChE (P22303 32-614): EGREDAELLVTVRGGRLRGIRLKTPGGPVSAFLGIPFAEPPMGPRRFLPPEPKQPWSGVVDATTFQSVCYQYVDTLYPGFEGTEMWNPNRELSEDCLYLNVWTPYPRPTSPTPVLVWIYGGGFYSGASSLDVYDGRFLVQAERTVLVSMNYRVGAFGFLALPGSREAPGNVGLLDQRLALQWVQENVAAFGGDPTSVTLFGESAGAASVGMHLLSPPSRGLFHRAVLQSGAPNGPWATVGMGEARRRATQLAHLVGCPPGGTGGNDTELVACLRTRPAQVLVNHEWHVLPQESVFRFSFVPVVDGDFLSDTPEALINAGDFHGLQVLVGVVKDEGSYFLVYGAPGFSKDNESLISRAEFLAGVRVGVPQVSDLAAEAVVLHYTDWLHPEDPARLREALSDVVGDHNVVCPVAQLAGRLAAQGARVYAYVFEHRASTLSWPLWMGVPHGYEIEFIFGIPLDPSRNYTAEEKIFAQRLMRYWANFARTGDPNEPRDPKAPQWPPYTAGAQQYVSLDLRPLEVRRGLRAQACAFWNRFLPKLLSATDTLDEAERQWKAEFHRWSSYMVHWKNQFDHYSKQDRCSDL
Experimental: (§1) In total, 170 μL of Tris–HCl buffer (200 mM, pH 7.5) was added, then 20 μL of the tested compounds at different concentrations ([…]), and finally 20 μL of the enzyme solution (0.1 U mL1). […] In BChE and AChE assays, butyrylthiocholine iodide and acetylthiocholine were used as substrates, and DTNB was used as an indicator. MeOH was used to dissolve the tested samples. […] Blank tests were performed by replacing the enzyme (20 μL) with buffer and recording the absorbances.
(§2) Percentage inhibition was calculated as follows: %Inhibition=Reading B−Reading A/Reading B×100

BuChE = BuChE (Homo sapiens, UniProt P06276); experiment: Butyrylcholinesterase inhibitory activity (Ellman's method); type: biochemical; conditions: butyrylthiocholine iodide substrate, 25 °C, read at 405 nm
Chain of BuChE (P06276 29-602): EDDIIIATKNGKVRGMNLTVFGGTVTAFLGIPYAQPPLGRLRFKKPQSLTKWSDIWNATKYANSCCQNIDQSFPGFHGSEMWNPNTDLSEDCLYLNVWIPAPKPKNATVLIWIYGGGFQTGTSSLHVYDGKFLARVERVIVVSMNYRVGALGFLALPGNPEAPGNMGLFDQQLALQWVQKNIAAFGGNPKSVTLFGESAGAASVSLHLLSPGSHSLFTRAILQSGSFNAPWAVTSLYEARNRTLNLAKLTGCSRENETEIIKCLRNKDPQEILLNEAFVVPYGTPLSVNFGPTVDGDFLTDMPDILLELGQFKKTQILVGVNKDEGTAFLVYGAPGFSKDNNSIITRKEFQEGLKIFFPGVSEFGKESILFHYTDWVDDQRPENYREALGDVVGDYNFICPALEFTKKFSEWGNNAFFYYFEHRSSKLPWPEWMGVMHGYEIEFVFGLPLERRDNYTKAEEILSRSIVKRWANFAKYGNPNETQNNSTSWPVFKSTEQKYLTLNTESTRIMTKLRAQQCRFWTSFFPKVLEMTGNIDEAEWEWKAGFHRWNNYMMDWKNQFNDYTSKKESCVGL
Experimental: as §1, §2

[1] = tested on: glutamate-induced excitotoxicity; conditions: low doses; cited from earlier work
NCI-H460 = NCI-H460 cell line; read-out: Cytotoxic activity IC50; cited from earlier work
MCF-7 = MCF-7 cell line; read-out: Cytotoxic activity IC50; cited from earlier work
MIA Pa Ca-2 = MIA Pa Ca-2 cell line; read-out: Cytotoxic activity IC50; cited from earlier work
SF-268 = SF-268 cell line; read-out: Cytotoxic activity IC50; cited from earlier work

| Compound | IC50 (AChE; Acetylcholine Esterase IC50, Ellman's method) | IC50 (BuChE; Butyryl Choline Esterase IC50, Ellman's method) | Neuroprotective activity against glutamate-induced excitotoxicity [1] | IC50 (NCI-H460) | IC50 (MCF-7) | IC50 (MIA Pa Ca-2) | IC50 (AChE; Ellman's method, read-out: Acetylcholine Esterase IC50 (converted)) | IC50 (BuChE; Ellman's method, read-out: Butyryl Choline Esterase IC50 (converted)) | IC50 (SF-268) |
| --- | --- | --- | --- | --- | --- | --- | --- | --- | --- |
| CC1=C2C(=CO[C@H](C)[C@H]2C)C(O)=C(C(=O)O)C1=O [Citrinin] | 20.2 µM | 32 µM and 30.1 µM | potential neuroprotective activity | – | – | – | – | – | – |
| C=CC(C)(C)c1[nH]c2ccccc2c1C1=C(O)C(=O)C(c2c[nH]c3ccccc23)=C(CC=C(C)C)C1=O [Terrequinone A] | – | – | – | 5.6 µM | 6.8 µM | 5.4 µM | 22.6 µM | 31.9 µM | 13.9 µM |
